This note sets out measurements from patent US20140018424A1, “PREVENTIVE EFFECT OF CITRULLINE ON THE SPONTANEOUS DEVELOPMENT OF TUMORS” (UNIVERSITE PARIS DESCARTES, priority 2011, published 2014).

Format in all cases: in vivo, male Sprague-Dawley rats
The test system of series [1] is tumours. Put plainly: Incidence of tumours after euthanasia in aged rats. The following applies: after euthanasia at 12 weeks; NEAA vs CIT p<0.05. As to the method:
(§1) Thirty-nine male Sprague-Dawley rats aged 20 months and free of tumours (Charles River, L'Arbresle, France) are used. They are raised individually in cages, at a temperature of 20-23° C., subjected to a cycle of 12 hours of light alternating with 12 hours of darkness. They have free access to water. For the acclimatization period, all the rats are fed a standard diet (59% carbohydrates, 3% lipids, 17% proteins and 21% fibres) ad libitum (UAR of 0.4 Dietex, Villemoisson-sur-Orge, France) for 2 weeks. The animals are cared for in accordance with French regulations on the protection of animals used for experimental and scientific purposes (D 2001-486) and with the Regulations of the European Community (Official Journal of the European Community, L538 12:18:1986).
(§2) After the acclimatization period, the rats are randomly divided into 2 groups.
(§3) In the “citrulline” group (CIT, n=19), the rats are fed ad libitum for 12 weeks with a citrulline-based supplement (1 g.kg^−1.day^−1 of citrulline) mixed with their standard diet. The dose of citrulline is calculated by extrapolation of the doses used in humans, taking into account the fact that the metabolic rate and nitrogen requirements are 10 times greater in rodents than those measured in humans and very close to the dose of arginine administered to rats for 12 weeks by Jobgen W. et al. (J Nutr 2009;139:230-7). […]

For series [2], the system named is polyamines. The series can be described thus: Level of polyamines in liver, jejunum and ileum of aged rats. Here is the method: as §1, §2
In the “citrulline” group (CIT, n=19), the rats are fed ad libitum for 12 weeks with a citrulline-based supplement (1 g.kg^−1.day^−1 of citrulline) mixed with their standard diet. The dose of citrulline is calculated by extrapolation of the doses used in humans, taking into account the fact that the metabolic rate and nitrogen requirements are 10 times greater in rodents than those measured in humans and very close to the dose of arginine administered to rats for 12 weeks by Jobgen W. et al. (J Nutr 2009;139:230-7). This dose corresponds to approximately 9% of the nitrogen intake, i.e. approximately 7g/day in the healthy adult volunteer.
In the “non-essential amino acids” group (NEAA, n=20), the rats are fed ad libitum for 12 weeks with a standard food rendered isonitrogenous with respect to the citrulline group by the addition of non-essential amino acids: […], serine, alanine and glycine in an equimolar ratio.
The rats are euthanized in the post-absorptive state after treatment for 12 weeks. The statistical studies are carried out using Statview® software

The test system of series [3] is aged healthy rats. The series can be described thus: Mortality over 12 weeks in aged healthy rats fed supplemented diet. Particulars: rats aged 20 months, supplemented diet ad libitum for 12 weeks; NEAA vs CIT p<0.05. As to the method:
as §1, §2, §3

Series [4] is described as follows: Body weight of aged rats before and after 12 weeks of supplementation.

On to `NC(=O)NCCCC(N)C(=O)O` (stereo not drawn) [CIT, 2-amino-5-(carbamoylamino)pentanoic acid], for which the “incidence of tumours (rats with tumours/rats assessed)” value in series [1] was 0/19. Moreover, the “effect of supplementation on putrescine” value in series [2] (12 weeks of supplementation) was “significant increase”. In series [2] (after 12 weeks, p 0.028), the Ileum putrescine is 79.8 ± 25. Further, the Liver putrescine in series [2] (after 12 weeks, p 0.034) was 17.1 ± 14.5. In series [2] (after 12 weeks, p NS), the Ileum spermidine is 374 ± 70, the Ileum spermine came to 203 ± 43, the Jejunum putrescine is 82.7 ± 36 and the Jejunum spermidine was determined as 478 ± 200. In series [2] (after 12 weeks, p NS), this compound had a Jejunum spermine of 297 ± 88, a Liver spermidine of 372 ± 90 and a Liver spermine of 557 ± 245. Moreover, in series [3], the “mortality over 12 weeks (dead rats/rats in group)” value is recorded as 0/19. In addition, the “effect of supplementation on body weight” value in series [4] (12 weeks, 1 g.kg^-1.day^-1 in the diet) is “does not affect the body weight”. For the same compound, the Final body weight in series [4] (after the 12-week supplementation, NEAA vs CIT N.S) stood at 630 ± 13. Moreover, the Initial body weight in series [4] (before the 12-week supplementation, NEAA vs CIT N.S) was 669 ± 16.
